We go through 8 compounds from patent EP0512570B1, “Urea derivatives, processes for the preparation thereof and pharmaceutical composition comprising the same” (FUJISAWA PHARMACEUTICAL CO., LTD., priority 1991, dated 1992).

SMILES strings stand for the structures.

The test concerns the target Acyl-CoA : cholesterol acyltransferase (ACAT). As to the kind of experiment: Acyl-CoA : cholesterol acyltransferase (ACAT) inhibitory activity. In kind it is biochemical, Japanese white rabbits. The note with it: enzyme from mucosal microsome fraction of small intestine of rabbits fed 2% cholesterol diet; [14C]oleoyl-CoA and endogenous cholesterol, 37°C for 5 minutes. On the procedure:
Acyl-CoA : cholesterol acyltransferase (ACAT) inhibitory activity
ACAT activity was measured by the method of Heider et al. described in Journal of Lipid Research, Vol. 24, page 1127 (1983). The enzyme ACAT was prepared from the mucosal microsome fraction of the small intestine of male, 18-week old Japanese white rabbits which had been fed diet containing 2% cholesterol for 8 weeks. The inhibitory activity of compounds were calculated by measuring the amount of the labeled cholesterol ester produced from [¹⁴C]oleoyl-CoA and endogenous cholesterol as follows. [¹⁴C]oleoyl-CoA and microsome were incubated with test compounds at 37°C for 5 minutes. The reaction was stopped by the addition of chloroform-methanol (2:1, V/V). Cholesterol ester fraction in the chloroform-methanol extracts was isolated by thin-layer chromatography and was counted their label.
As to `CCCCCCCN(Cc1cc2ccccc2o1)C(=O)Nc1c(F)cc(F)cc1F` [Example 3 - (9), N-(Benzofuran-2-ylmethyl)-N-heptyl-N'-(2,4,6-trifluorophenyl)urea], the half-inhibitory concentration (IC50) (in general, the concentration needed to halve the response being measured) was found to be 73 nM. This lies in the double-digit nanomolar range. The compound `Cc1ccc2oc(CN(Cc3ccccc3)C(=O)Nc3c(F)cc(F)cc3F)c(-c3ccc(Cl)cc3)c2c1` [Example 6 - (2), N-Benzyl-N-[3-(4-chlorophenyl)-5-methylbenzofuran-2-ylmethyl]-N'-(2,4,6-trifluorophenyl)urea] had an IC50 of 7.4 nM. In the case of `Cc1ccc(CN(Cc2oc3ccc(C)cc3c2-c2ccc(Cl)cc2)C(=O)Nc2c(F)cc(F)cc2F)cc1` [Example 6 - (7), N-[3-(4-Chlorophenyl)-5-methylbenzofuran-2-ylmethyl]-N-(4-methylbenzyl)-N'-(2,4,6-trifluorophenyl)urea] it was 4.4 nM. Under `Cc1ccc2oc(CN(Cc3ccco3)C(=O)Nc3c(F)cc(F)cc3F)c(-c3ccc(Br)cc3)c2c1` [Example 5 - (15), N-[3-(4-Bromophenyl)-5-methylbenzofuran-2-ylmethyl]-N-furfuryl-N'-(2,4,6-trifluorophenyl)urea] stands 8.9 nM.

The compound `Cc1ccc(-c2c(CN(Cc3ccccc3)C(=O)Nc3c(F)cc(F)cc3F)oc3ccc(Cl)cc23)cc1` [Example 6 - (6), N-Benzyl-N-[5-chloro-3-(4-methylphenyl)benzofuran-2-ylmethyl]-N'-(2,4,6-trifluorophenyl)urea] returned a 50% inhibitory concentration (IC50) of 8.4 nM. Under `CCCCCCCN(Cc1oc2ccc(CC)cc2c1-c1ccc(Cl)cc1)C(=O)Nc1c(F)cc(F)cc1F` [Example 3 - (35), N-[3-(4-Chlorophenyl)-5-ethylbenzofuran-2-ylmethyl]-N-heptyl-N'-(2,4,6-trifluorophenyl)urea] stands 6.6 nM. Regarding `Cc1ccc2oc(CN(Cc3ccc(F)cc3)C(=O)Nc3c(F)cc(F)cc3F)c(-c3ccc(Cl)cc3)c2c1` [Example 5 - (7), N-[3-(4-Chlorophenyl)-5-methylbenzofuran-2-ylmethyl]-N-(4-fluorobenzyl)-N'-(2,4,6-trifluorophenyl)urea], the midpoint of inhibition, the IC50, lay at 8.8 nM.

For the compound `O=C(Nc1c(F)cc(F)cc1F)N(Cc1oc2ccccc2c1-c1ccccc1)C1CCCCCC1` [Example 3 - (10), N-Cycloheptyl-N-(3-phenylbenzofuran-2-ylmethyl)-N'-(2,4,6-trifluorophenyl)urea], the IC50 is 24 nM.
